Source: publication PMC6249549, “Bioactive metabolites from the leaves of Withania adpressa” (Pharmaceutical Biology, 2018)
Entries after “also recorded” stand apart in the source; their conditions may differ.

Assays:
[1] = DPPH radical scavenging assay; details: pure compound
Protocol: The DPPH radical scavenging activity was carried out as described previously (Şahin et al. [2004]) with slight modifications. Samples (1–200 µg/mL) were added to a 60-μM methanol solution of DPPH. The absorbance of the solution was measured at 517 nm after a 30-min incubation period at room temperature in the dark.

[2] = NO radical scavenging assay; details: pure compound
NF-κB = NF-κB inhibition assay, TNF-α stimulated HEK293/NF-κB-luc luciferase reporter cells; assay type: cell-based; details: TNF-α (20 ng/mL) induced, mean ± SD of three independent measurements
Protocol: NF-κB inhibitory activity was assessed using a HEK293/NF-κB-luc cell line (Panomics, Fremont, CA) as previously described (Ndongo et al. [2017]). Briefly, cells were cultured at 37 °C and 5% CO2 atmosphere in high glucose Dulbecco's modified Eagle's medium (ThermoFisher Scientific) with 100 IU/mL penicillin, 100 μg/mL streptomycin, 100 μg/mL hygromycin B (ThermoFisher Scientific) and 10% foetal bovine serum (Biowest, Nuaillé, France). The day before the assay, cells were treated for 1 h with 2.5 μM of Cell Tracker Green CMFDA (ThermoFisher Scientific), a fluorescent dye used to quantify cell viability, in FBS-free medium. Then, 10^4 cells/well were seeded in 96-well plates and incubated overnight. After that, cells were treated with either the vehicle control (0.5% DMSO in culture medium) or the samples and stimulated for 5 h with 20 ng/mL of TNF-α (Sigma-Aldrich, Saint Louis, MO). Finally, cells were lysed with reporter lysis buffer (Promega, Madison, WI) and fluorescence signals were read on a Cytation 3 multimode plate reader (Biotek, Winooski, VT). Luciferase assay reagent (Promega) was then added to each well using the auto-injector and the luminescence signals were read. The fluorescence signal was used to normalize the luminescence signal for each well to limit the influence of cell toxicity in luminescence signal intensity. Relative NF-κB activity was quantified by comparing the normalized luminescence signal of vehicle treated nonstimulated cells with the one of vehicle treated stimulated cells. All pure compounds were first screened at 20 μM. Compounds able to inhibit more than 50% of TNF-α induced NF-κB activity at this concentration were considered as active and were selected for calculation of their IC50. Nonlinear regression (with sigmoidal dose response) was used to calculate the IC50 values using GraphPad Prism. Each compound was tested in duplicate and three independent experiments were performed using parthenolide as positive control.

[3] = tested on: MM-CSCs (multiple myeloma cancer stem cells); experiment: Antiproliferative activity, MTT assay; assay type: cell-based, Human; details: 72 h; for IC50: Homo sapiens, mean ± SD of three measurements
Protocol: (§1) Human multiple myeloma cancer stem cells (MM-CSCs) derived from the bone marrow of a MM patient, were obtained from Celprogen (Torrance, CA). MM-CSCs were used between passages 4 and 12 for experiments. The tumour plasma cells RPMI 8226 were obtained from LGC standards (Middlesex, United Kingdom). RPMI 8226 cells were used between passages 10 and 25 for experiments. The two cell lines were cultured at 37 °C and 5% CO2 atmosphere in RPMI 1640 culture medium supplemented with 10% foetal bovine serum (Biowest), 100 IU/mL penicillin and 250 μg/mL streptomycin. MTT and XTT assays were used to evaluate the antiproliferative activity of the pure compounds in MM-CSCs and RPMI 8226 cells, respectively (Issa and Cuendet [2017]). MM-CSCs were seeded in 96 well plates at a density of 5,000 cells per well and allowed to adhere for 24 h, whereas RPMI 8226 cells were plated at a density of 15,000 cells per well and treated immediately. MM-CSCs and RPMI 8226 cells were treated with increasing concentrations (0–20 µM) of compounds for 72 h. Twenty microlitres of MTT solution (5 mg/mL) or 50 μL XTT solution (1 mg/mL) were added in each well and incubated for 2 h (MTT assay) or 4 h (XTT assay). The media and MTT solution were aspirated and the cells containing formazan were solubilized in 100 µL DMSO. Absorbance was measured at 590 nm (MTT assay) or 450 nm (XTT assay). The percentage of cell viability was calculated as the absorbance of each well was divided by that of the vehicle control wells (0.5% DMSO in culture medium) and multiplied by 100. IC50 values were calculated using GraphPad Prism. Each compound was tested in triplicate and three independent experiments were performed using bortezomib as positive control.

RPMI 8226 cells = experiment: Antiproliferative activity, XTT assay; assay type: cell-based; details: for IC50: Homo sapiens, RPMI-8226, 72 h, mean ± SD of three measurements; for Antiproliferative activity against RPMI 8226 (in words): 72 h
Protocol: as §1

Row | IC50 [1] | IC50 [2] | SMILES | IC50 (NF-κB; Homo sapiens, HEK293, 5 h) | IC50 [3] | IC50 (RPMI 8226 cells) | IC50 (NF-κB; 5 h) | Antiproliferative activity against MM-CSCs (in words) [3] | Antiproliferative activity against RPMI 8226 (in words) (RPMI 8226 cells)
1 | 35300 nM | 41300 nM | C[C@@H]1O[C@@H](OC[C@H]2O[C@@H](Oc3c(-c4ccc(O)cc4)oc4cc(O)cc(O)c4c3=O)[C@H](O)[C@@H](O)[C@@H]2O)[C@H](O)[C@H](O)[C@H]1O [Compound 4, nicotiflorin] | > 20000 nM | > 20000 nM | 7100 ± 100 nM |  |  | 
2 |  |  | CC(C)C[C@H](NC(=O)[C@H](Cc1ccccc1)NC(=O)c1cnccn1)B(O)O [Bortezomib, bortezomib, reference compound] |  | 9.1 ± 1.4 nM | 3.3 ± 0.8 nM |  |  | 
3 |  |  | CC1=C(CO)C(=O)O[C@@H]([C@@H](C)[C@H]2CC[C@H]3[C@@H]4C[C@H]5O[C@]56[C@@H](O)C=CC(=O)[C@]6(C)[C@H]4CC[C@]23C)C1 [Compound 2, withaferin A] | 47 nM | 330 ± 20 nM | 170 ± 30 nM | 50 ± 10 nM | low µM antiproliferative activity | low µM antiproliferative activity
4 |  |  | CC1=C(C)C(=O)OC(C(C)(O)C2(O)CCC3(O)C4CC=C5CC(OC6OC(CO)C(O)C(O)C6O)CC(=O)C5(C)C4CCC32C)C1 (stereo not shown) [Compound 3, coagulin L] | > 20000 nM | > 20000 nM | 3600 ± 600 nM |  |  | 
5 |  |  | CC1=C(C)C(=O)OC(C(C)(O)C2(O)CCC3(O)C4CC=C5CC(OC6OC(CO)C(OC7OC(C)C(O)C(O)C7O)C(O)C6O)CC(=O)C5(C)C4CCC32C)C1 [Compound 5, (14R,17S,20R,22R)-3β-O-(α-L-rhamnopyranosyl-(1→4)-β-D-glucopyranosyl)-14,17,20-trihydroxy-1-oxo-witha-5,24-dienolide] | > 20000 nM | > 20000 nM | 3200 ± 400 nM |  |  | 
6 |  |  | C=C1C(=O)O[C@H]2[C@H]1CC/C(C)=C/CC[C@@]1(C)O[C@@H]21 [Parthenolide, parthenolide, reference compound] | 530 ± 10 nM |  |  |  |  | 
7 |  |  | CC1=C(C)C(=O)O[C@@H]([C@](C)(O)[C@]2(O)CC[C@@]3(O)[C@@H]4CC=C5CC=CC(=O)[C@]5(C)[C@H]4CC[C@]23C)C1 [Compound 1, withanolide F] | 1200 ± 200 nM | 5300 ± 900 nM | 100 ± 10 nM |  | low µM antiproliferative activity; also recorded: showed activity | low µM antiproliferative activity; also recorded: showed activity
